Patent US20160129011A1, “BICYCLO 2,3-BENZODIAZEPINES AND SPIROCYCLICALLY SUBSTITUTED 2,3-BENZODIAZEPINES” (BAYER PHARMA AKTIENGESELLSCHAFT, priority 2013, published 2016)

Key:
BRD4 (BD1) = target: T1, BRD4 (BD1) (Homo sapiens, UniProt O60885); test: Binding assay BRD4/acetylated peptide H4 (TR-FRET protein-protein interaction assay); conditions: BRD4 (BD1) / acetylated histone H4 peptide
T1 construct: longer constructs also being possible, preferably amino acids 44-168; made in house; host or cells: E. coli
Source text: To assess the BRD4 binding strength of the substances described in this application, the ability thereof to inhibit the interaction between BRD4 (BD1) and acetylated histone H4 in a dose-dependent manner was quantified.
For this purpose, a time-resolved fluorescence resonance energy transfer (TR-FRET) assay was used, which measures the binding between N-terminally His6-tagged BRD4 (BD1) (amino acids 67-152, longer constructs also being possible, preferably amino acids 44-168) and a synthetic acetylated histone H4 (Ac—H4) peptide with sequence GRGK(Ac)GGK(Ac)GLGK(Ac)GGAK(Ac)RHGSGSK-biotin. The recombinant BRD4 protein produced in-house according to Filippakopoulos et al., Nature, 2010, 468:1119-1123 was expressed in E. coli and purified by means of (Ni-NTA) affinity and (Sephadex G-75) size exclusion chromatography. The Ac—H4 peptide can be purchased, for example, from Biosyntan (Berlin, Germany).
In the assay, typically 11 different concentrations of each substance (0.1 nM, 0.33 nM, 1.1 nM, 3.8 nM, 13 nM, 44 nM, 0.15 μM, 0.51 μM, 1.7 μM, 5.9 μM and 20 μM) were analysed as duplicates on the same microtitre plate. For this purpose, 100-fold concentrated solutions in DMSO were prepared by serial dilutions (1:3.4) of a 2 mM stock solution into a clear, 384-well microtitre plate (Greiner Bio-One, Frickenhausen, Germany). From this, 50 nl were transferred into a black test plate (Greiner Bio-One, Frickenhausen, Germany). The test was started by the addition of 2 μl of a 2.5-fold concentrated BRD4 solution (final concentration typically 10 nM in the 5 μl of reaction volume) in aqueous assay buffer [50 mM HEPES pH 7.5, 50 mM sodium chloride (NaCl), 0.25 mM CHAPS and 0.05% serum albumin (BSA)] to the substances in the test plate. This was followed by a 10-minute incubation step at 22° C. for the pre-equilibration of putative complexes between BRD4 and the substances.
The mixture was then incubated in the dark at 22° C. for one hour and then at 4° C. for at least 3 hours and for no longer than overnight. The formation of BRD4/Ac—H4 complexes was determined by the measurement of the resonance energy transfer from the streptavidin-Eu cryptate to the anti-6His-XL665 antibody present in the reaction. For this purpose, the fluorescence emission was measured at 620 nm and 665 nm after excitation at 330-350 nm in a TR-FRET measuring instrument, for example a Rubystar or Pherastar (both from BMG Lab Technologies, Offenburg, Germany) or a Viewlux (Perkin-Elmer). The ratio of the emissions at 665 nm and at […] was taken as an indicator of the amount of BRD4/Ac—H4 complexes formed.
The data (ratios) obtained were normalized, with 0% inhibition corresponding to the mean from the measurements for a set of controls (typically 32 data points) in which all the reagents were present. In these, in place of test substances, 50 nl of DMSO (100%) were used. Inhibition of 100% corresponded to the mean from the measurements for a set of controls (typically 32 data points) in which all the reagents except BRD4 were present. The IC50 was determined by regression analysis based on a 4-parameter equation (minimum, maximum, IC50, Hill; Y=max+(min−max)/(1+(X/IC50)^Hill)).

MOLM-13 cells = test: Cell proliferation assay (alamarBlue), MOLM-13; assay type: cell-based; conditions: Homo sapiens, MOLM-13; acute myeloid leukaemia cell line, 96 h incubation
Description: (§1) In accordance with the invention, the ability of the substances to inhibit cell proliferation was determined. Cell viability was determined by means of the alamarBlue® reagent (Invitrogen) in a Victor X3 Multilabel Reader (Perkin Elmer). The excitation wavelength was 530 nm and the emission wavelength […].
The MOLM-13 cells (DSMZ, ACC 554) were sown at a concentration of 4000 cells/well in 100 μl of growth medium (RPMI1640, 10% FCS) on 96-well microtitre plates.
(§2) The MDA-MB-231 cells (DSMZ, ACC 732) were sown at a concentration of 4000 cells/well in 100 μl of growth medium (DMEM/Ham's F12 medium, 10% FCS) on 96-well microtitre plates. After overnight incubation at 37° C., the fluorescence values (CI values) were determined. Then the plates were treated with various substance dilutions (1E-5 M, 3E-6 M, 1E-6 M, 3E-7 M, 1E-7 M, 3E-8 M, 1E-8 M) and incubated at 37° C. for 72 (MV4-11, LOX-IMVI cells), 96 (MOLM-13, B16F10, […] cells), 120 (MOLP-8, KMS-12-PE cells) or 168 (LAPC-4 cells) hours. Subsequently, the fluorescence values were determined (CO values). For the data analysis, the CI values were subtracted from the CO values and the results were compared between cells which had been treated with various dilutions of the substance or only with buffer solution. This was used to calculate the IC50 values (substance concentration required for 50% inhibition of cell proliferation).
(§3) The substances were examined in the cell lines of Table 1 which, in an exemplary manner, represent the stated indications: […]

MOLP-8 cells = test: Cell proliferation assay (alamarBlue), MOLP-8; assay type: cell-based; conditions: Homo sapiens, MOLP-8; multiple myeloma cell line, 120 h incubation
Description: as §1
The MOLP-8 cells (DSMZ, ACC 569) were sown at a concentration of 4000 cells/well in 100 μl of growth medium (RPMI1640, 20% FCS) on 96-well microtitre plates.
as §2, §3

| Structure (SMILES) | IC50 (BRD4 (BD1)) [nM] | IC50 (MOLM-13 cells) [nM] | IC50 (MOLP-8 cells) [nM] |
| --- | --- | --- | --- |
| CNC(=O)N1N=C(c2ccc(N3C[C@H]4CC[C@@H](C3)O4)cc2)c2cc(OC)c(OC)cc2CC1C (mixture of isomers) [Example 4, (±)-7,8-dimethoxy-N,4-dimethyl-1-[4-(8-oxa-3-azabicyclo[3.2.1]oct-3-yl)phenyl]-4,5-dihydro-3H-2,3-benzodiazepine-3-carboxamide] | 30 | 100 |  |
| CNC(=O)N1N=C(c2ccc(N3CC4(COC4)C3)cc2)c2cc(OC)c(OC)cc2CC1C (racemic) [Example 5, (±)-7,8-dimethoxy-N,4-dimethyl-1-[4-(2-oxa-6-azaspiro[3.3]hept-6-yl)phenyl]-4,5-dihydro-3H-2,3-benzodiazepine-3-carboxamide] | 20 | 210 |  |
| CNC(=O)N1N=C(c2ccc(N3[C@@H]4CC[C@H]3CC(=O)C4)cc2)c2cc(OC)c(OC)cc2CC1C (mixture of isomers) [Example 6, (±)-7,8-dimethoxy-N,4-dimethyl-1-[4-(3-oxo-8-azabicyclo[3.2.1]oct-8-yl)phenyl]-4,5-dihydro-3H-2,3-benzodiazepine-3-carboxamide] | 30 | 180 |  |
| CNC(=O)N1N=C(c2cccc(N3CC4CCC(C3)O4)c2)c2cc(OC)c(OC)cc2CC1C (racemic) [Example 13, (±)-7,8-dimethoxy-N,4-dimethyl-1-[3-(8-oxa-3-azabicyclo[3.2.1]oct-3-yl)phenyl]-4,5-dihydro-3H-2,3-benzodiazepine-3-carboxamide] | 90 | 560 |  |
| CNC(=O)N1N=C(c2ccc(-c3ccc4c(c3)OCCO4)cc2)c2cc(OC)c(OC)cc2CC1C (racemic) [Example 21, (±)-1-[4-(2,3-dihydro-1,4-benzodioxin-6-yl)phenyl]-7,8-dimethoxy-N,4-dimethyl-4,5-dihydro-3H-2,3-benzodiazepine-3-carboxamide] | 90 | 710 |  |
| CNC(=O)N1N=C(c2ccc(-c3ccc4c(c3)CCO4)cc2)c2cc(OC)c(OC)cc2CC1C (racemic) [Example 22, (±)-1-[4-(2,3-dihydro-1-benzofuran-5-yl)phenyl]-7,8-dimethoxy-N,4-dimethyl-4,5-dihydro-3H-2,3-benzodiazepine-3-carboxamide] | 50 | 550 |  |
| CNC(=O)N1N=C(c2ccc(-c3cccc4ncccc34)cc2)c2cc(OC)c(OC)cc2CC1C (racemic) [Example 23, (±)-1-[4-(quinolin-5-yl)phenyl]-7,8-dimethoxy-N,4-dimethyl-4,5-dihydro-3H-2,3-benzodiazepine-3-carboxamide] | 60 | 250 |  |
| CNC(=O)N1N=C(c2ccc(-c3ccnc4ccccc34)cc2)c2cc(OC)c(OC)cc2CC1C (racemic) [Example 24, (±)-1-[4-(quinolin-4-yl)phenyl]-7,8-dimethoxy-N,4-dimethyl-4,5-dihydro-3H-2,3-benzodiazepine-3-carboxamide] | 70 | 390 |  |
| CNC(=O)N1N=C(c2ccc(-c3ccc4c(ccn4C)c3)cc2)c2cc(OC)c(OC)cc2CC1C (racemic) [Example 25, (±)-7,8-dimethoxy-N,4-dimethyl-1-[4-(1-methyl-1H-indol-5-yl)phenyl]-4,5-dihydro-3H-2,3-benzodiazepine-3-carboxamide] | 50 | 530 |  |
| CNC(=O)N1N=C(c2ccc(-c3cncc4ccccc34)cc2)c2cc(OC)c(OC)cc2CC1C (racemic) [Example 26, (±)-1-[4-(isoquinolin-4-yl)phenyl]-7,8-dimethoxy-N,4-dimethyl-4,5-dihydro-3H-2,3-benzodiazepine-3-carboxamide] | 60 | 550 |  |
| CNC(=O)N1N=C(c2ccc(N3CCN4CCCC4C3)cc2)c2cc(OC)c(OC)cc2CC1C (racemic) [Example 30, (±)-1-[4-(hexahydropyrrolo[1,2-a]pyrazin-2(1H)-yl)phenyl]-7,8-dimethoxy-N,4-dimethyl-4,5-dihydro-3H-2,3-benzodiazepine-3-carboxamide] | 70 | 200 | 90 |
| CNC(=O)N1N=C(c2ccc(N3C[C@H]4CN(C)C[C@H]4C3)cc2)c2cc(OC)c(OC)cc2CC1C (mixture of isomers) [Example 33, (±)-7,8-dimethoxy-N,4-dimethyl-1-{4-[(3aR,6aS)-5-methylhexahydropyrrolo[3,4-c]pyrrol-2(1H)-yl]phenyl}-4,5-dihydro-3H-2,3-benzodiazepine-3-carboxamide] | 90 | 220 | 110 |
| CNC(=O)N1N=C(c2ccc(N3C(=O)C4CCC3C4)cc2)c2cc(OC)c(OC)cc2CC1C (stereo not drawn) [Example 1, [1S-(1R*,4S*)]-7,8-Dimethoxy-N,4-dimethyl-1-[4-(3-oxo-2-azabicyclo[2.2.1]hept-2-yl)phenyl]-4,5-dihydro-3H-2,3-benzodiazepine-3-carboxamide] | 30 | 140 |  |
| CNC(=O)N1N=C(c2ccc(N3C[C@H]4CC[C@@H](C3)O4)cc2)c2cc(OC)c(OC)cc2C[C@H]1C [Example 4.1, (4R)-7,8-dimethoxy-N,4-dimethyl-1-[4-(8-oxa-3-azabicyclo[3.2.1]oct-3-yl)phenyl]-4,5-dihydro-3H-2,3-benzodiazepine-3-carboxamide] | 1850 | 6090 |  |
| CNC(=O)N1N=C(c2ccc(N3CC4(COC4)C3)cc2)c2cc(OC)c(OC)cc2C[C@@H]1C [Example 5.1, (4S)-7,8-dimethoxy-N,4-dimethyl-1-[4-(2-oxa-6-azaspiro[3.3]hept-6-yl)phenyl]-4,5-dihydro-3H-2,3-benzodiazepine-3-carboxamide] | 20 | 110 |  |
| CNC(=O)N1N=C(c2ccc(N3[C@@H]4CC[C@H]3CC(=O)C4)cc2)c2cc(OC)c(OC)cc2C[C@H]1C [Example 6.1, (4R)-7,8-dimethoxy-N,4 dimethyl-1-[4-(3-oxo-8-azabicyclo[3.2.1]oct-8-yl)phenyl]-4,5-dihydro-3H-2,3-benzodiazepine-3-carboxamide] | 1230 | 450 |  |
| CNC(=O)N1N=C(c2ccc(N3[C@@H]4CC[C@H]3CC(=O)C4)cc2)c2cc(OC)c(OC)cc2C[C@@H]1C [Example 6.2, (4S)-7,8-dimethoxy-N,4-dimethyl-1-[4-(3-oxo-8-azabicyclo[3.2.1]oct-8-yl)phenyl]-4,5-dihydro-3H-2,3-benzodiazepine-3-carboxamide] | 20 | 50 |  |
